Measurements from PMC3948889, “The Effects of LPM570065, a Novel Triple Reuptake Inhibitor, on Extracellular Serotonin, Dopamine and Norepinephrine Levels in Rats” (PLoS ONE, 2014).
Where two headings read alike, the source gives them in different places.

Tests used:
[1] = system: immobility time in the forced swim test; details: without significantly altering locomotor activity, cited from earlier work
[2] = system: extracellular DA levels in the rat striatum; assay: microdialysis: extracellular DA levels in the rat striatum
[3] = system: extracellular 5-HT levels in the rat striatum; assay: microdialysis: extracellular 5-HT levels in the rat striatum
[4] = system: extracellular NE levels in the rat striatum; assay: microdialysis: extracellular NE levels in the rat striatum
[5] = system: immobility time in the forced swim test; details: tested 0.5, 1, 2 and 4 h post-dosing
Experimental: Forced swim test was used to measure the depression-like behavior in rats after acute and chronic drug treatment. Animals were randomly divided into six groups. The animals in Groups 1, 2 and 3 were used for acute treatment, and the animals in Groups 4, 5 and 6 were used for chronic treatment (once a day for 14 days). […] The entire test was performed in 2 consecutive days: a 15-min pretest session on day 1 followed by a 5-min test session the next day. On the pretest day, rats were individually forced to swim for 15 min in a plastic cylinder (diameter 22 cm, height 46 cm) containing water (25±1°C) with a depth of 30 cm. On the test day, rats were placed in the cylinder again for a 5-min test trial at 0.5, 1, 2 and 4 h post-dosing (n = 10 rats per time point in each group). The total duration of immobilization was recorded. The criterion for immobilization was vertical floating in the water and movements necessary to keep the head above the water. After the test, animals were removed and dried with towels before returning to their home cage.

[6] = chronic oral suspension 0.06 mmol·kg^−1·day^−1 for 14 days
[7] = acute oral administration (oral solution, oral suspension 0.06 mmol·kg^−1)

## CC(NC(C)(C)C)C(=O)c1cccc(Cl)c1 (stereo not shown) [bupropion]
[1]; 10 mg/kg
  immobility time in the forced swim test: reduce the immobility time

## CN(C)CC(c1ccc(O)cc1)C1(O)CCCCC1 (stereo not shown) [desvenlafaxine]
[2]; acute, oral administration or intravenous administration
  effect on extracellular DA levels: did not significantly alter the extracellular DA levels
[2]; [6]
  effect on extracellular DA levels: did not significantly alter the extracellular DA levels
[3]; acute intravenous solution 0.04 mmol·kg^−1, after the initial 90 min decrease, then returned to basal
  extracellular 5-HT levels increased to (% of basal): 162±15%
[3]; acute intravenous solution 0.04 mmol·kg^−1, during the first 90 min post-dosing
  decrease in extracellular 5-HT levels: 90%
[3]; [7]
  effect on extracellular 5-HT levels vs. relative vehicle: slight but significant increases
[3]; [6]
  increase in 5-HT AUC0–240 min value of the vehicle group: 187±25%
[4]; acute intravenous administration 0.04 mmol·kg^−1
  effect on extracellular NE levels vs. relative vehicle: marked and significant increases
[4]; [7]
  effect on extracellular NE levels vs. relative vehicle: slight but significant increases
[4]; chronic oral suspension 0.06 mmol·kg^−1·day^−1 for 14 days, at 60 min
  extracellular NE peak value (% of basal): 139±9%
[5]; acute oral suspension 0.06 mmol·kg^−1
  immobility time in the forced swim test vs. vehicle: only significantly reduced the immobility time at 1 h
[5]; [6]
  immobility time in the forced swim test vs. vehicle: significantly reduced the immobility time

## CN1Cc2c(N)cccc2C(c2ccccc2)C1 (stereo not shown) [nomifensine]
[1]; 2.5 mg/kg
  immobility time in the forced swim test: reduce the immobility time
